Assay results published in paper PMC5952519, “Screening a repurposing library, the Medicines for Malaria Venture Stasis Box, against Schistosoma mansoni” (Parasites & Vectors, 2018).
pIC50: −log10 of the molar value. Entries after “also recorded” stand apart in the source; their conditions may differ. Read-outs that look alike come from different tables or passages of the source.

Legend:
[1] = Cytotoxicity assay on L6 cells (resazurin / Alamar Blue); assay type: cell-based; conditions: rat
Method: Rat skeletal myoblast L6 cells (2 × 10^4 cells/ml) were exposed to serial dilutions of the 11 lead compounds (1:3, range: 0.37–90 μM). Podophyllotoxin (PPT, 1:3, range: 2 × 10^-4 –0.05 μg/ml) was used as a positive control. After a 72-hour incubation, resazurin dye (Alamar Blue) was added to the plates. […] Each drug was tested in duplicate and each assay was repeated once.
(§1) For in vitro assays, the average viability scores between replicates (or individual adult worms) were normalised to the controls and converted into percentage activity (or effect). Drug IC50 values (for NTS or adult worms) were calculated by computing different dose-effect values using CompuSyn2 software (ComboSyn Inc., 2007). The linear correlation coefficient (r) reflects the experimental fit. In this study, r-values > 0.70 were considered acceptable. […] The selectivity index (SI) of each drug was calculated by dividing the CC50 measured on the L6 cells by the IC50 measured on the parasites. For in vivo studies, as previously described, the worm burden reduction [%] was determined by comparing the worm burden of treated and untreated mice. For statistical significance a Kruskal-Wallis test was employed (R version 3.2.2).

[2] = system: adult S. mansoni; assay: In vitro assay on adult S. mansoni worms, viability scoring by microscopy; assay type: cell-based; conditions: Schistosoma mansoni, read-out: Adult IC50
Source text: (§2) The S. mansoni (Liberian strain) life-cycle, is maintained in-house at the Swiss Tropical and Public Health Institute (Swiss TPH), as described before. Biomphalaria glabrata were infected with 6 to 8 S. mansoni miracidia. They were kept in pond water under natural light, temperature and humidity conditions until the infectious stage, the cercariae, started to shed. The cercariae were mechanically transformed to schistosomula, the NTS, using a procedure adapted from Milligan & Jolly. NTS were incubated (37 °C, 5% CO2) until use for 12 to maximum 24 h in M199 medium supplemented with FCS and antibiotics. Adult S. mansoni of both sexes were collected by dissecting the intestinal veins of mice euthanized 7 weeks post-infection. All the adult worms recovered were incubated for maximum one week until use in RPMI medium supplemented with FCS and penicillin-streptomycin.
(§3) Hit compounds identified on NTS progressed into testing on adult worms. Females, males and pairs (3 to 5 worms per well) were exposed to the drug dilution in supplemented RPMI medium. The assays were performed in duplicate in 24-wells plates (Eppendorf AG, Hamburg, Germany). […] Each IC50 assay was repeated once. These assays were repeated for the lead compounds in presence of albumin (BSA) at the human physiological concentration of 45 g/l (AlbuMAX II, Gibco). For all in vitro assays (NTS and adults), negative controls containing the highest concentration of DMSO were included. Worms incubated with praziquantel served as positive controls. The parasites were evaluated under an inverted optical microscope over 3 days after drug exposure. Their movement and morphology were assessed and scored as described previously.
as §1, with “Drug IC50 values (for NTS or adult worms) were calculated by computing different dose-effect values using CompuSyn2 software (ComboSyn Inc., 2007).” left out

[3] = system: newly transformed schistosomula (NTS) of Schistosoma mansoni; assay: In vitro assay on newly transformed schistosomula (NTS), viability scoring by microscopy; assay type: cell-based
Source text: as §2
For in vitro screening on NTS, the parasite suspension was adjusted to 50 NTS/100 μl in supplemented M199 medium and added to the drug dilutions in 96-wells plates (Eppendorf AG, Hamburg, Germany). NTS were initially exposed to a drug concentration of 10 μM (0.1% DMSO). Each drug was tested in duplicate.
as §3, with “Germany). […] Each assay on NTS was performed in triplicate with serial drug dilutions (1:2, range: 10–0.16 μM) and repeated once.” for “Germany).”
as §1

[4] = system: MRC5 cells; conditions: read-out: MRC5 cells CC50; ref provided by MMV; cited from earlier work
[5] = system: adult S. mansoni; assay: In vitro assay on adult S. mansoni worms in albumin-enriched medium (45 g/l); assay type: cell-based; conditions: Schistosoma mansoni, read-out: Adult IC50 with albumin
Method: as §3
as §1, with “Drug IC50 values (for NTS or adult worms) were calculated by computing different dose-effect values using CompuSyn2 software (ComboSyn Inc., 2007).” left out

[6] = system: S. mansoni; assay: In vivo efficacy in mice harbouring a chronic S. mansoni infection (worm burden); parameters: species or system Schistosoma mansoni; conditions: for inhibition in vivo at 200 mg/kg: Schistosoma mansoni
Method: (§4) Three weeks old NMRI female mice were used (Charles Rivers, Germany) for in vivo drug efficacy studies. The animals were kept in groups of ten with constant access to food and water. After one week of habituation, mice were sub-cutaneously injected a suspension containing 100 S. mansoni cercariae in phosphate-buffered saline (PBS). The drugs (200 mg/kg single dose) were administered seven weeks post-infection by oral gavage to groups of 4 mice. They were dissolved in tap water with Tween80/ethanol (10%, 70:30). Untreated mice (n = 10) served as control and were dissected 7 weeks post-infection. Treated mice (n = 40) were euthanized with CO2 and dissected between 16 to 18 days post-drug administration. The worms were then collected, sexed and counted.
as §1

[7] = Survival of treated infected mice in the in vivo study; conditions: single 200 mg/kg oral dose
Method: as §4
Eight compounds had no effect on the worm burden in infected mice (worm burden reduction < 36%).

[8] = 72-hour incubation, read-out: L6 cells CC50
[9] = Schistosoma mansoni, 24 h; read-out: NTS IC50
[10] = Schistosoma mansoni, 48 h; read-out: NTS IC50
[11] = mice, single 200 mg/kg oral dose, 49-day-old adult infection, read-out: WBR (worm burden reduction)
[12] = mice, single 200 mg/kg oral dose, 49-day-old adult infection
[13] = po, read-out: WBR (worm burden reduction), mice, single 200 mg/kg oral dose, 49-day-old adult infection

Structure (SMILES) | CC50 at 72 h [1, 8] [µM] | pIC50 ([2]; 24 h, standard medium) | pIC50 ([2]; 48 h, standard medium) | pIC50 [3, 9] | pIC50 [3, 10] | CC50 [4] [µM] | CC50 at 72 h [1] [µM] | pIC50 ([5]; 24 h, albumin 45 g/l) | pIC50 ([5]; 72 h, albumin 45 g/l) | inhibition in vivo at 200 mg/kg [6, 11] [%] | Mean worm burden ± SD [6, 12] | pIC50 ([5]; 48 h, albumin 45 g/l) | further results
Nc1nc2ccc(Cl)cc2c2nc(-c3ccco3)nn12 [MMV001539] | 2.9 | 4.55 | 4.91 | 4.90 | 4.96 | 16 | – | – | – | – | – | – | –
COc1ccc(NC(=O)c2ccc(-c3ccc(-c4noc(C)n4)cc3C)cc2)cc1N1CCN(C)CC1 [MMV003452] | – | 5.77 | 5.52 | 5.36 | 5.66 | 1.9 | 3.7 | 4.65 | 5.12 | 12.2 | 40.5 ± 17.2 | – | –
O=C(O)Cc1cccc(OCCCN(Cc2cccc(C(F)(F)F)c2Cl)CC(c2ccccc2)c2ccccc2)c1 [MMV690466] | 1.6 | 5.54 | 5.64 | 4.84 | 5.42 | 8.4 | – | 4.74 | 4.32 | 35.9 | 10.3 ± 6.9 | 4.05 | effect on NTS at 10 μM ([3]; 10 μM, 48 h): high effect; also recorded: high activity
Fc1ccc(Cl)cc1-c1nc(Nc2ccncc2)c2nccnc2n1 [MMV690534] | – | – | – | – | – | 12.4 | – | – | – | – | 7.8 ± 7.5 | – | CC50 at 72 h ([1]; L6 skeletal myoblast cells, 72-hour incubation, read-out: L6 cells CC50): 74.5 µM; pIC50 ([2]; 24 h): 4.76; pIC50 ([2]; 48 h): 4.71; pIC50 ([3]; Schistosoma mansoni, 24 h, read-out: NTS IC50): 4.93; pIC50 ([3]; Schistosoma mansoni, 48 h, read-out: NTS IC50): 4.84; inhibition in vivo at 200 mg/kg [6, 13]: > 50%
CC(C)(Cc1c[nH]c2ccc(Cl)cc12)NCCOc1ccccc1OCC1CC1 [MMV690599] | 3.4 | – | – | 4.98 | 5.46 | 2 | – | – | – | – | 44.7 ± 29.6 | – | pIC50 ([5]; 24 h): 4.63; pIC50 ([5]; 48 h): 4.72; pIC50 ([5]; 72 h): 4.80; pIC50 ([2]; 48 h): 5.48; inhibition in vivo at 200 mg/kg [6, 13]: 3.2%
Cc1ccc(C(=O)N(CCCN)[C@@H](c2nc3cc(Cl)ccc3c(=O)n2Cc2ccccc2)C(C)C)cc1 [MMV690646, Ispinesib] | – | 5.43 | – | 5.52 | 5.96 | 0.2 | – | 4.49 | 4.47 | – | – | 3.91 | death of treated mice [7]: died prematurely; also recorded: death of the mice
CC#CC(=O)Nc1ccc2ncnc(Nc3cccc(Br)c3)c2c1 [MMV690684] | – | 5.31 | 5.33 | 5.40 | 5.51 | 7 | 7 | 4.11 | 5.11 | 10 | 41.5 ± 16.5 | 4.84 | –
CNCc1ccc(C)c(NC(=O)c2ccc(Nc3nc(-c4ccccc4)c4ccccc4n3)cc2)c1 [MMV690732] | – | 5.31 | 5.54 | 4.53 | 5.20 | 1.9 | 2.3 | 4.20 | 4.27 | 0 | 47.5 ± 24.3 | 3.74 | –
CCOc1cc2ncc(C#N)c(Nc3ccc(F)c(Cl)c3)c2cc1NC(=O)/C=C/CN(C)C [MMV690765, Pelitinib] | – | 5.38 | 5.47 | 3.04 | < 6.00 | 0.7 | 11.8 | 3.19 | 3.91 | 0 | 84.0 ± 56.4 | 3.65 | –
CC[C@@H]1C(=O)N(C)c2cnc(Nc3ccc(C(=O)NC4CCN(C)CC4)cc3OC)nc2N1C1CCCC1 [MMV690787] | – | – | – | – | – | 0.1 | – | – | – | 0 | 48.3 ± 21.6 | – | –
